Assay [1] has as its system Huh7. The assay can be described thus: Cell proliferation by MTS method, Huh7. Type of assay: cell-based. Conditions: Homo sapiens, Huh-7; Table 1, Huh7; read-out: Tumour cell proliferative activity/IC50(nM) Liver Cancer Huh7. The text has this: (§1) (2) Detection of Cell Proliferation by MTS Method
(§2) The MTS assay is a method for indirectly determining the number of living cells via colourimetric method. MTS is a newly synthesised tetrazole compound that reflects cell viability, which can be reduced by succinate dehydrogenase in the mitochondria of living cells to an orange-coloured formazan with an absorbance of the reduced product measured at 490 nm being in proportion to the number of living cells, thus reflecting the cell viability. This assay can be used to evaluate the effect of the compound on the proliferation of pancreatic cancer cells, thereby determining the inhibitory effect of the compound on the proliferation of pancreatic cancer cells and to calculate the IC^50. Each cells were inoculated uniformly into a 96-well plate at a density of 1-20×10^3 cells/well, 100 μL per well, and placed in a constant temperature incubator until the cells adhered to the wall. The control group was added with the corresponding medium and the experimental groups were given different concentrations of the compound prepared by the examples of the present invention, and the cells were taken out 24-96 h after administration for observing the cell state under a microscope. Under light-proof conditions, MTS was added and well mixed, the mixture was placed in a constant temperature incubator at 37° C., and the light absorption value were measured using an enzyme marker at 490 nm and the experiment was repeated for three times, IC50 was calculated with GraphPad5 Prism software.

Assay [2] has as its target STAT3 protein (Homo sapiens, UniProt P40763). The assay can be described thus: Binding activity to STAT3 protein by microscale thermophoresis (MST). As to conditions: purified STAT3 recombinant protein. The text has this:
(1) Determination of Binding Activities of Compounds to STAT3 Protein by Microscale Thermophoresis (MST) Method
The microscale thermophoresis (MST) technique is a simple, rapid, and accurate method for quantifying biomolecular interactions. It can measure the movement of molecules in a microscopic temperature gradient field, as well as detect changes of molecular hydration shell, charge and size. When the Nanotemper microscale thermophoresis instrument locally heated by a infrared laser, molecules will move in a directional manner, then the molecular distribution ratio in the temperature gradient field are analyzed by a fluorescence to detect whether a small molecule compound binds to a target protein. The experimental operation is as follows: firstly, compounds to be tested are diluted in a gradient using MST test buffer, total 16 concentrations being configured; subsequently, the purified STAT3 recombinant protein is labeled using the HIS tag labeling kit, and the final concentration of the labeled protein is 100-200 nM; the labeled STAT3 proteins are well mixed with the diluted compounds and incubated and protected from light for 30 minutes; finally the samples were loaded by capillary tube and detected on the instrument. The binding constants (K^D) of small molecules to STAT3 protein were analyzed by Mo. analysis software.

The subject of assay [3] is HCC827. The assay can be described thus: Cell proliferation by MTS method, HCC827. Type of assay: cell-based. Conditions: Homo sapiens; Table 1, HCC827; read-out: Tumour cell proliferative activity/IC50(nM) Lung Cancer HCC827.
Description: as §1, §2

In assay [4] the test system is MKN45. The assay can be described thus: Cell proliferation by MTS method, MKN45. The format is cell-based. Conditions: Homo sapiens, MKN-45; Table 1, MKN45; read-out: Tumour cell proliferative activity/IC50(nM) gastric Cancer MKN45.
Description: as §1, §2

The subject of assay [5] is Capan-2. The assay can be described thus: Cell proliferation by MTS method, Capan-2. The format is cell-based. Conditions: Homo sapiens; Table 1, Capan-2; read-out: Tumour cell proliferative activity/IC50(nM) Pancreatic Cancer Capan-2.
Description: as §1, §2

Results on 15 compounds are retold here after patent US12448372B2, “Class of triaromatic compounds targeting bifunctional phosphorylation site of STAT3 and applications thereof” (SHANGHAI YUYAO BIOTECH LTD., priority 2019, dated 2025).

pKd: −log10 of the molar value. Where only a bound is given, the exact number is not on record here.

Chain of STAT3 protein (P40763 whole entry): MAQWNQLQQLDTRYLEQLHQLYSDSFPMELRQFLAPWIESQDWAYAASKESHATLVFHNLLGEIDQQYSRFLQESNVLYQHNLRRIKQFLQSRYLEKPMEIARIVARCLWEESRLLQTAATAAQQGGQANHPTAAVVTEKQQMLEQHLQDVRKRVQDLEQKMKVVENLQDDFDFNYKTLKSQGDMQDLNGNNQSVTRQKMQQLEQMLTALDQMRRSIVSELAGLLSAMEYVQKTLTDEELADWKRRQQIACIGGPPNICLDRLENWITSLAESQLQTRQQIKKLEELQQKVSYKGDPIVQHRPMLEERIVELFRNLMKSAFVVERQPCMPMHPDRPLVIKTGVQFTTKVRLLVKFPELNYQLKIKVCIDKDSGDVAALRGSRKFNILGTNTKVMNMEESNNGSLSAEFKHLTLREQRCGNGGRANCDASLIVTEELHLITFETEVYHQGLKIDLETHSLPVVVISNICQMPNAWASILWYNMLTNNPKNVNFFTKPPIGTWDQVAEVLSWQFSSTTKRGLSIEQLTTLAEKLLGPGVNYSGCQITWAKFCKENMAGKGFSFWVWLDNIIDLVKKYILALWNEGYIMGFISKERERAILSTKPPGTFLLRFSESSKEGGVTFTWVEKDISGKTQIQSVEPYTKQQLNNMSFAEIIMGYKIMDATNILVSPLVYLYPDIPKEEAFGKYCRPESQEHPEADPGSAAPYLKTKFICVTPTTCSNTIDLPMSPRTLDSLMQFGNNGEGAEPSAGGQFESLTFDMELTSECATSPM

For `CCn1c(C(=O)N2CCN(Cc3ccc(OCC(F)(F)F)cc3)CC2)cc2ccc(Oc3cnc(-c4nc(-c5ccc(C(F)(F)F)cc5)no4)cn3)cc21` [Example 15, (1-ethyl-6-((5-(3-(4-(trifluoromethyl)phenyl)-1,2,4-oxadiazol-5-yl)pyrazin-2-yl)oxy)-1H-indol-2-yl)(4-(4-(2,2,2-trifluoromethoxy)benzyl)piperazin-1-yl)methanone], the IC50 in assay [1], in assay [3], in assay [4] and in assay [5] was less than 10 nM each time. Further, the pKd in assay [2] was greater than 8.00.

Take `CCCn1c(C(=O)N2CCN(Cc3ccc(OCC(F)(F)F)cc3)CC2)cc2ccc(Oc3cnc(-c4nc(-c5ccc(C(F)(F)F)cc5)no4)cn3)cc21` [Example 16, (1-propyl-6-((5-(3-(4-(trifluoromethyl)phenyl)-1,2,4-oxadiazol-5-yl)pyrazin-2-yl)oxy)-1H-indol-2-yl)(4-(4-(2,2,2-trifluoromethoxy)benzyl)piperazin-1-yl)methanone]: the IC50 in assay [1], in assay [3], in assay [4] and in assay [5] was less than 100 nM in each case. In addition, the pKd in assay [2] is greater than 7.00.

`C=CCn1c(C(=O)N2CCN(Cc3ccc(OCC(F)(F)F)cc3)CC2)cc2ccc(Oc3cnc(-c4nc(-c5ccc(C(F)(F)F)cc5)no4)cn3)cc21` [Example 17, (1-allyl-6-((5-(3-(4-(trifluoromethyl)phenyl)-1,2,4-oxadiazol-5-yl)pyrazin-2-yl)oxy)-1H-indol-2-yl) (4-(4-(2,2,2-trifluoromethoxy)benzyl)piperazin-1-yl)methanone]: the IC50 in assay [1], in assay [3], in assay [4] and in assay [5] was less than 10 nM throughout. Further, in assay [2], the pKd was greater than 8.00.

On to `COCCn1c(C(=O)N2CCN(Cc3ccc(OCC(F)(F)F)cc3)CC2)cc2ccc(Oc3cnc(-c4nc(-c5ccc(C(F)(F)F)cc5)no4)cn3)cc21` [Example 18, (1-(2-methoxyethyl)-6-((5-(3-(4-(trifluoromethyl)phenyl)-1,2,4-oxadiazol-5-yl)pyrazin-2-yl)oxy)-1H-indol-2-yl) (4-(4-(2,2,2-trifluoroethoxy)benzyl)piperazin-1-yl)methanone], for which the IC50 in assay [1], in assay [3], in assay [4] and in assay [5] was less than 100 nM each time. The pKd in assay [2] is greater than 7.00.

Consider `CC(C)C(=O)n1c(C(=O)N2CCN(Cc3ccc(OCC(F)(F)F)cc3)CC2)cc2ccc(Oc3cnc(-c4nc(-c5ccc(C(F)(F)F)cc5)no4)cn3)cc21` [Example 19], for which the IC50 in assay [1], in assay [3], in assay [4] and in assay [5] was less than 10 nM in each case. Also, the pKd in assay [2] was greater than 8.00.

Turning to `COC(=O)Cn1c(C(=O)N2CCN(Cc3ccc(OCC(F)(F)F)cc3)CC2)cc2ccc(Oc3cnc(-c4nc(-c5ccc(C(F)(F)F)cc5)no4)cn3)cc21` [Example 20], the IC50 in assay [1], in assay [3], in assay [4] and in assay [5] was less than 1000 nM in each case. Also, the pKd in assay [2] is greater than 6.00.

As for `CCOC(=O)Cn1c(C(=O)N2CCN(Cc3ccc(OCC(F)(F)F)cc3)CC2)cc2ccc(Oc3cnc(-c4nc(-c5ccc(C(F)(F)F)cc5)no4)cn3)cc21` [Example 21], the IC50 in assay [1], in assay [3], in assay [4] and in assay [5] was less than 1000 nM in each case. Further, the pKd in assay [2] is greater than 7.00.

As to `O=C(c1cc2ccc(Oc3cnc(-c4nc(-c5ccc(C(F)(F)F)cc5)no4)cn3)cc2n1Cc1ccccc1)N1CCN(Cc2ccc(OCC(F)(F)F)cc2)CC1` [Example 22], the IC50 in assay [1], in assay [3], in assay [4] and in assay [5] was less than 1000 nM each time. The pKd in assay [2] was greater than 7.00.

With `Cn1c(C(=O)N2CCN(Cc3ccccc3)CC2)cc2ccc(Oc3cnc(-c4nc(-c5ccc(C(F)(F)F)cc5)no4)cn3)cc21` [Example 23, (4-benzylpiperazin-1-yl)(1-methyl-6-((5-(3-(4-(trifluoromethyl)phenyl)-1,2,4-oxadiazol-5-yl)pyrazin-2-yl)oxy)-1H-indol-2-yl)methanone], the IC50 in assay [1], in assay [3], in assay [4] and in assay [5] was less than 1000 nM throughout. Further, in assay [2], the pKd is greater than 7.00.

Turning to `Cc1cccc(CN2CCN(C(=O)c3cc4ccc(Oc5cnc(-c6nc(-c7ccc(C(F)(F)F)cc7)no6)cn5)cc4n3C)CC2)c1` [Example 24, (1-methyl-6-((5-(3-(4-(trifluoromethyl)phenyl)-1,2,4-oxadiazol-5-yl)pyrazin-2-yl)oxy)-1H-indol-2-yl) (4-(3-methylbenzyl)piperazin-1-yl)methanone], the IC50 in assay [1], in assay [3], in assay [4] and in assay [5] was less than 1000 nM each time. Moreover, the pKd in assay [2] is greater than 7.00.

Regarding `Cc1ccc(CN2CCN(C(=O)c3cc4ccc(Oc5cnc(-c6nc(-c7ccc(C(F)(F)F)cc7)no6)cn5)cc4n3C)CC2)cc1` [Example 25, (1-methyl-6-((5-(3-(4-(trifluoromethyl)phenyl)-1,2,4-oxadiazol-5-yl)pyrazin-2-yl)oxy)-1H-indol-2-yl) (4-(4-methylbenzyl)piperazin-1-yl)methanone], the IC50 in assay [1], in assay [3], in assay [4] and in assay [5] was less than 100 nM throughout. The pKd in assay [2] is greater than 7.00.

For the compound `Cn1c(C(=O)N2CCN(Cc3ccc(F)cc3)CC2)cc2ccc(Oc3cnc(-c4nc(-c5ccc(C(F)(F)F)cc5)no4)cn3)cc21` [Example 26, (4-(4-fluorobenzyl)piperazin-1-yl)(1-methyl-6-((5-(3-(4-(trifluoromethyl)phenyl)-1,2,4-oxadiazol-5-yl)pyrazin-2-yl)oxy)-1H-indol-2-yl)methanone], the IC50 in assay [1], in assay [3], in assay [4] and in assay [5] was less than 1000 nM each time. Besides, the pKd in assay [2] was greater than 6.00.

Consider `Cn1c(C(=O)N2CCN(Cc3ccc(Cl)cc3)CC2)cc2ccc(Oc3cnc(-c4nc(-c5ccc(C(F)(F)F)cc5)no4)cn3)cc21` [Example 27, (4-(4-chlorobenzyl)piperazin-1-yl)(1-methyl-6-((5-(3-(4-(trifluoromethyl)phenyl)-1,2,4-oxadiazol-5-yl)pyrazin-2-yl)oxy)-1H-indol-2-yl)methanone], for which the IC50 in assay [1], in assay [3], in assay [4] and in assay [5] was less than 100 nM throughout. In assay [2], the pKd was greater than 7.00.

`Cn1c(C(=O)N2CCN(Cc3ccc(Br)cc3)CC2)cc2ccc(Oc3cnc(-c4nc(-c5ccc(C(F)(F)F)cc5)no4)cn3)cc21` [Example 28, (4-(4-bromobenzyl)piperazin-1-yl)(1-methyl-6-((5-(3-(4-(trifluoromethyl)phenyl)-1,2,4-oxadiazol-5-yl)pyrazin-2-yl)oxy)-1H-indol-2-yl)methanone]: the IC50 in assay [1], in assay [3], in assay [4] and in assay [5] was less than 100 nM in each case. For the same compound, the pKd in assay [2] was greater than 7.00.

`Cn1c(C(=O)N2CCN(Cc3cccc(C(F)(F)F)c3)CC2)cc2ccc(Oc3cnc(-c4nc(-c5ccc(C(F)(F)F)cc5)no4)cn3)cc21` [Example 29, (1-methyl-6-((5-(3-(4-(trifluoromethyl)phenyl)-1,2,4-oxadiazol-5-yl)pyrazin-2-yl)oxy)-1H-indol-2-yl)(4-(3-(trifluoromethyl)benzyl)piperazin-1-yl)methanone]: the IC50 in assay [1], in assay [3], in assay [4] and in assay [5] was less than 1000 nM in each case. Also, in assay [2], the pKd is greater than 6.00.
